Marks after values point to notes of the source that are not given here.
Legend:
Format in all cases: cell-based
Human dendritic cells [1] = assay: Induction of IFN-gamma production by DC (ELISA); conditions: 100 μg, 48 hours
Procedure, shortened: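 Dendritic cells from three donors (1.0×10^5 cells/ml) were incubated 48 h with 100 μg of each polynucleotide. IFN-gamma in culture supernatant was measured by ELISA. Values are fold increase over untreated control cells.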

Human dendritic cells [2] = assay: CD86 levels at the DC cell surface (flow cytometry); conditions: 100 μg, 48 hours
Procedure, shortened: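 Human DCs (from donors B and C) at 1.0×10^5 cells/ml were exposed 48 h to 100 μg of 6-base polynucleotides. Surface CD86 was measured by flow cytometry with a PE-conjugated anti-CD86 mAb. Values are % CD86^hi DC after treatment.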

Human dendritic cells [3] = assay: Induction of IL-12 production by DC (ELISA); conditions: 100 μg, 48 hours
Procedure, shortened: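 Human DCs from three donors, 1.0×10^5 cells/ml, exposed 48 h to 100 μg of 6-base polynucleotides. IL-12 in culture supernatant measured by ELISA. Values given as fold increase over untreated control cells.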

Human dendritic cells [4] = assay: MHC-II levels at the DC cell surface (flow cytometry); conditions: DC from individual B; 100 μg, 48 hours
Procedure, shortened: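 Dendritic cells from one donor were seeded at 1.0×10^5 cells/ml and treated for 48 h with 100 μg of 6-base polynucleotides. Surface MHC II was then measured by flow cytometry with a FITC-conjugated anti-MHC II antibody. Values are the percentage of MHC II^hi DC.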

Human dendritic cells [5] = assay: CD40 levels at the DC cell surface (flow cytometry); conditions: 100 μg, 48 hours
Procedure, shortened: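 DCs from two donors, seeded at 1.0×10^5 cells/ml, were exposed for 48 h to 100 μg of 6-base polynucleotides. Surface CD40 was then measured by flow cytometry with a FITC anti-CD40 mAb. Values are the percentage of CD40^hi DC, meaning above-baseline CD40 expression.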

Human dendritic cells [6] = assay: Endocytosis of FITC-dextran by DC; conditions: DC from individual B, 100 μg, 24 hours, untreated control = 100
Protocol: Human dendritic cells were obtained from Clonetics (San Diego, Calif., USA) and were cultured in the medium recommended by Clonetics. DC were obtained from three different individuals (see Table 1). Major histocompatability typing was performed on each of these individuals and several of the HLA (human leukocyte antigens) types are shown.
DC from individual B were seeded in 1.0 ml at 1.0×10^5 cells/ml in 6-well flat-bottomed tissue culture plates for 24 hours with 1 mg/ml of FITC-dextran (20 kDa; Sigma-Aldrich) in the absence or presence of 100 μg of 6 base N2A, N2B, N3A, N3B, N5A, N5B, and N6B polynucleotides at 4° C. (control cell surface binding of FITC-dextran) and 37° C. (to assess endocytosis). Cells were washed three times with ice-cold phosphate buffered saline and analyzed by flow cytometry using CELLQuest Pro. Results are expressed as relative endocytic rate (normalized Δ Mean Fluorescence Value (Δ MFV)). Δ MFV=MFV of DC exposed to FITC-dextran at 37° C.−MFV of DC exposed to FITC-dextran at 4° C. Δ MFV=(ΔMFVsequence/ΔMFVcontrol)×100.

Substance	IFN-gamma production by DC (fold increase compared to untreated DC) (Human dendritic cells [1]; DC isolated from individual A)	IFN-gamma production by DC (fold increase compared to untreated DC) (Human dendritic cells [1]; DC isolated from individual B)	IFN-gamma production by DC (fold increase compared to untreated DC) (Human dendritic cells [1]; DC isolated from individual C)	The percentage of CD86^hi DC following treatment (Human dendritic cells [2]; DC from individual B)	The percentage of CD86^hi DC following treatment (Human dendritic cells [2]; DC from individual C)	IL-12 production by DC (fold increase compared to untreated DC) (Human dendritic cells [3]; DC isolated from individual A)	IL-12 production by DC (fold increase compared to untreated DC) (Human dendritic cells [3]; DC isolated from individual B)	IL-12 production by DC (fold increase compared to untreated DC) (Human dendritic cells [3]; DC isolated from individual C)	The percentage of MHC-II^hi DC following treatment (Human dendritic cells [4])	The percentage of CD40^hi DC following treatment (Human dendritic cells [5]; DC from individual B)	The percentage of CD40^hi DC following treatment (Human dendritic cells [5]; DC from individual C)	Relative endocytic rate (normalized Δ MFV) (Human dendritic cells [6])
5′GGGAGG3′ [N6A] (unmodified DNA)	1.0 fold	1.0 fold	1.0 fold	24** %	18%	1.0 fold	1.0 fold	1.0 fold	25%	35** %	15%	–
5′GGGAGG3′ [N6B] (DNA, backbone not given here; further chemistry not fully specified)	1.1 fold	1.0 fold	1.1 fold	15%	33%	1.3 fold	1.4 fold	4.1 fold	27%	28** %	15%	23
5′GGGTGG3′ [N3A]	1.0 fold	1.0 fold	1.0 fold	16%	37** %	1.0 fold	1.0 fold	1.0 fold	23%	36** %	20%	156
5′GGGTGG3′ [N3B]	2.0 fold	4.5 fold	1.3 fold	30** %	39** %	5.2 fold	17.3 fold	14.4 fold	25%	33** %	14%	211

From patent US7371734B2, “Oligonucleotide compositions and their use for the modulation of immune responses” (Bioniche Life Sciences Inc., priority 2002, dated 2008)
